# Assay results as given in US20150175655A1 (priority 2012, published 2015).
# Molecular target: T1, NS3 genotype 3a protease (UniProt Q81258)
# T1 construct: Purified NS3 protease domain (amino acids 1-181) of the genotype 1b and 3a virus were generated as above; fused on or other part: N-terminal hexahistidine tag and rTEV protease cleavage site (vector p28-N6H-Tev-NS3(181)3)
# T1 sequence (Q81258 1033-1663): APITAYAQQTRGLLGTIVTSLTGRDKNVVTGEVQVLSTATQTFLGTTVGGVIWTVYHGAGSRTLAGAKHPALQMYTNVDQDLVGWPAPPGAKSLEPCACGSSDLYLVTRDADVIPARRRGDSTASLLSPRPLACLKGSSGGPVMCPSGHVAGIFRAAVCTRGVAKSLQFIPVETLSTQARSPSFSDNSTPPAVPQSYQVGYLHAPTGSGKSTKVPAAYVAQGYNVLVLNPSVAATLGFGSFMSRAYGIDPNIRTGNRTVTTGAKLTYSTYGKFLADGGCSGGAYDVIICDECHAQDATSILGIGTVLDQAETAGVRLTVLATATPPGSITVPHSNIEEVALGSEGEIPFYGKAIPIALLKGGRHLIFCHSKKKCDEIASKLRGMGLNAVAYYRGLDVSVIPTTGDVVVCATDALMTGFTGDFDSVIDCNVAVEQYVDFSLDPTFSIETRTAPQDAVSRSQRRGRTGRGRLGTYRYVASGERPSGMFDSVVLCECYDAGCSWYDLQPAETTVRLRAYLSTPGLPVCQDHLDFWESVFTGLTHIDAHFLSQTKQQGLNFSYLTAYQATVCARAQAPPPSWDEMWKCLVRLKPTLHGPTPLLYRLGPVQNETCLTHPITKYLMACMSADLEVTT
# Assay: Ki determination, NS3 protease genotype 3a (fluorogenic depsipeptide substrate)
# Format: biochemical, hepatitis C virus
# Conditions: 200 pM enzyme, 20 μM NS4A peptide, 2 μM substrate, read-out: Ki 3A
# Summary of the method: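 Refolded His-tagged NS3 protease domain (aa 1-181, genotype 3a) at 200 pM with 20 μM NS4A peptide was pre-incubated 1 h at RT with inhibitor (100 nM–5 pM, 3-fold), then 2 μM FRET depsipeptide substrate was added in HEPES/40% glycerol/10% DMSO buffer. Steady-state rates over 90-120 min (ex 340/em 490 nm) versus inhibitor concentration gave Ki.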
row,Compound,Ki [nM]
1,"COc1ccc2nc3c(nc2c1)O[C@H]1CN(C(=O)[C@H](C(C)(C)C)NC(=O)O[C@@H]2C[C@H]2CCCCC3F)[C@H](C(=O)N[C@]2(C(=O)NS(=O)(=O)C3(C)CC3)C[C@H]2C(F)F)[C@@H]1C (stereo partly drawn) [Example 47, (1aR,5S,8S,9S,10R,22aR)-5-tert-butyl-N-[(1R,2R)-2-(difluoromethyl)-1-{[(1-methylcyclopropyl)sulfonyl]carbamoyl}cyclopropyl]-18-fluoro-14-methoxy-9-methyl-3,6-dioxo-1,1a,3,4,5,6,9,10,18,19,20,21,22,22a-tetradecahydro-8H-7,10-methanocyclopropa[18,19][1,10,3,6]dioxadiazacyclononadecino[11,12-b]quinoxaline-8-carboxamide]",0.19
2,"CC[C@@H]1[C@@H]2CN(C(=O)[C@H](C(C)(C)C)NC(=O)O[C@]3(C)CCC[C@H]3CCCCCc3nc4ccc(OC)cc4nc3O2)[C@@H]1C(=O)N[C@]1(C(=O)NS(=O)(=O)C2(C)CC2)C[C@H]1CC(F)F [Example 41, (3aR,7S,10S,11S,12R,24aR)-7-tert-butyl-N-[(1R,2S)-2-(2,2-difluoroethyl)-1-{[(1-methylcyclopropyl)sulfonyl]carbamoyl}cyclopropyl]-11-ethyl-16-methoxy-3a-methyl-5,8-dioxo-1,2,3,3a,5,6,7,8,11,12,20,21,22,23,24,24a-hexadecahydro-10H-9,12-methanocyclopenta[18,19][1,10,3,6]dioxadiazacyclononadecino[11,12-b]quinoxaline-10-carboxamide]",0.79
3,"C[C@@H]1[C@@H]2CN(C(=O)[C@H](C(C)(C)C)NC(=O)O[C@@H]3C[C@H]3CCCCC(F)(F)c3nc4ccc(Cl)cc4nc3O2)[C@@H]1C(=O)N[C@]1(C(=O)NS(=O)(=O)C2(C)CC2)C[C@H]1C(F)F [Example 88, (1aR,5S,8S,9S,10R,22aR)-5-tert-butyl-14-chloro-N-[(1R,2R)-2-(difluoromethyl)-1-{[(1-methylcyclopropyl)sulfonyl]carbamoyl}cyclopropyl]-18,18-difluoro-9-methyl-3,6-dioxo-1,1a,3,4,5,6,9,10,18,19,20,21,22,22a-tetradecahydro-8H-7,10-methanocyclopropa[18,19][1,10,3,6]dioxadiazacyclononadecino[11,12-b]quinoxaline-8-carboxamide]",0.29
4,"CC[C@@H]1[C@@H]2CN(C(=O)[C@H](C(C)(C)C)NC(=O)O[C@@H]3C[C@H]3CC/C=C/C(F)(F)C3Nc4ccc(C#N)cc4N=C3O2)[C@@H]1C(=O)N[C@]1(C(=O)NS(=O)(=O)C2(C)CC2)C[C@H]1C(F)F (stereo partly drawn) [Example 78, (1aR,5S,8S,9S,10R,19E,22aR)-5-tert-butyl-14-cyano-N-[(1R,2R)-2-(difluoromethyl)-1-{[(1-methylcyclopropyl)sulfonyl]carbamoyl}cyclopropyl]-9-ethyl-18,18-difluoro-3,6-dioxo-1,1a,3,4,5,6,9,10,17,17a,18,21,22,22a-tetradecahydro-8H-7,10-methanocyclopropa[18,19][1,10,3,6]dioxadiazacyclononadecino[11,12-b]quinoxaline-8-carboxamide]",0.82
